Laboratory results from patent US20160282364A1, “ASSAY FOR INSULIN-DEGRADING ENZYME (IDE) INHIBITORS” (PRESIDENT AND FELLOWS OF HARVARD COLLEGE, priority 2013, published 2016).

Tests used:
C57BL/6J mice = assay: Insulin tolerance test, glucagon challenge and amylin challenge; format: in vivo, mouse
Description: Wild-type lean C57BL/6J and diet-induced obese (DIO) C57BL/6J age-matched male mice were purchased from Jackson Laboratories, and used at ages 14-16, and 24-26 weeks respectively (>20 weeks of high-fat diet for the DIO mice). GCGR^/ mice were bred from heterozygous mice and used between 11 and 17 weeks. […] Blood glucose was measured from tail nicks using AccuCheck (Aviva) meters.
Insulin Tolerance Test (ITT), Glucagon Challenge (GC) and Amylin Challenge (AC). For hormone challenges animals were fasted individually housed as described above. For ITT the fasting period was 6 h (7 am to 1 pm), and for glucagon and amylin challenges the fasting period was 14 h (8 pm-10 am). Inhibitor or vehicle alone was injected i.p. as previously described, 30 min prior to each hormone challenge. […] Glucagon (Eli Lilly) was injected s.c. 100 μg/kg formulated in 0.5% BSA sterile saline (5 mL/kg). Amylin (Bachem) was injected s.c. 250 μg/kg formulated in sterile saline (5 mL/kg). Blood glucose was measured at timepoints −45, 0, 15, 30, 45, 60 and 75 min with reference to the time of hormone injection, by microsampling from a tail nick as described above. Values are reported as mean±S.E.M. Statistics were performed using a two-tail Student's t-test, and significance levels shown in the figures are *p<0.05 versus vehicle control group or **p<0.01 versus vehicle control group.
Blood collection and plasma hormone measurements. Blood was collected in EDTA-coated tubes (BD Microtainer®) from trunk bleeding (˜500 μL) after CO2-euthanasia for all hormone assays. The plasma was immediately separated from red blood cells by centrifugation 10 min at 1800 g, aliquoted, frozen over dry ice and stored at −80° C. […] Values are reported as mean±S.E.M. Statistics were performed using a two-tail Student's t-test, and significance levels shown in the figures are *p<0.05 versus vehicle control group or **p<0.01 versus vehicle control group.

hIDE WT = target: T1, hIDE WT (Homo sapiens, UniProt P14735); assay: Small molecule-enzyme mutant complementation study, wild type; format: biochemical
T1 construct: The reported N-His6-tagged human IDE42-1019 construct; made in house; host or cells: E. coli Rosetta 2 (DE3) pLysS
T1 sequence (P14735 42-1019): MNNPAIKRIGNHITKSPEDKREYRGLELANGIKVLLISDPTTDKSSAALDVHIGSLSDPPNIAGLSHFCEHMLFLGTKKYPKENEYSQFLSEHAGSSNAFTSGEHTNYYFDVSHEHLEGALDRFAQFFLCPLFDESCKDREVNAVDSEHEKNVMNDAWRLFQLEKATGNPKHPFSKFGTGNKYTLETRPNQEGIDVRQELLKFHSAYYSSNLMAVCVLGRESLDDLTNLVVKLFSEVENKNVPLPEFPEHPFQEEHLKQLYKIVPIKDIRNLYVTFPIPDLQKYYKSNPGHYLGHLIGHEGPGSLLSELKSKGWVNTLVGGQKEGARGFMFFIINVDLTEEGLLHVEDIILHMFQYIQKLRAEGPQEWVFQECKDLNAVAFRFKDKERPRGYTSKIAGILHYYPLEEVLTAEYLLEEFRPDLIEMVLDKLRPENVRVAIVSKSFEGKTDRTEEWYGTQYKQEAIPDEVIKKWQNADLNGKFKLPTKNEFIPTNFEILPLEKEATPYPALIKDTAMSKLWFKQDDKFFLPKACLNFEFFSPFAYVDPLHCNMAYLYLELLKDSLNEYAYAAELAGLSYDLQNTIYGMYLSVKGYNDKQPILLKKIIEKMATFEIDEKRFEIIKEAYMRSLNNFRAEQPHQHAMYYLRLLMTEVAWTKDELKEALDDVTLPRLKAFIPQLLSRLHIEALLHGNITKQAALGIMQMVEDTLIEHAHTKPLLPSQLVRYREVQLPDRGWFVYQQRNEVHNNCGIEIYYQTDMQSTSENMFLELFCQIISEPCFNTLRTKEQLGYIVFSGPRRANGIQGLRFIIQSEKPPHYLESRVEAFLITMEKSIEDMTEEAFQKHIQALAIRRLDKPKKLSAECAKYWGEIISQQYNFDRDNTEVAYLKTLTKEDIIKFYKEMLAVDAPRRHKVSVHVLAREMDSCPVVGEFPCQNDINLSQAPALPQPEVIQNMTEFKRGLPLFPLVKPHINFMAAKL
Text: Protease assays with fluorogenic peptide substrates. […] All assay data points were obtained in duplicate.
Site-directed mutagenesis, expression, and purification of human IDE. The reported N-His6-tagged human IDE42-1019 construct was introduced in the expression plasmid pTrcHis-A (Invitrogen) using primers for uracil-specific excision reactions (USER) by Taq (NEB) and Pfu polymerases (PfuTurbo CX®, Agilent). The IDE gene was amplified with the primers 5′-[…]-dU-[…] and 5′-[…] G-dU-[…] (underlined sequences represent overhangs, and italics highlight the PCR priming sequence). Similarly, the pTrcHis-A vector was amplified for USER cloning with the primers 5′-[…] TGA-dU-[…] CCC and 5′-[…]-dU-[…]. Mutant IDE constructs were generated by amplifying the full vector construct with USER cloning primers introducing a mutant overhang (Table 5).
All PCR products were purified on microcentrifuge membrane columns (MinElute®, Qiagen) and quantified by UV absorbance (NanoDrop). Each fragment (0.2 pmol) was combined in a 10 μL reaction mixture containing 20 units DpnI (NEB), 0.75 units of USER mix (Endonuclease VIII and Uracil-DNA Glycosylase, NEB), 20 mM Tris-acetate, 50 mM potassium acetate, 10 mM magnesium acetate, 1 mM dithiothreitol at pH 7.9 (1× NEBuffer 4). The reactions were incubated at 37° C. for 45 min, followed by heating to 80° C. and slow cooling to 30° C. (0.2° C./s). The hybridized constructs were directly used for heat-shock transformation of chemically competent NEB turbo E. coli cells according to the manufacturer's instructions. Transformants were selected on carbenicillin LB agar, and isolated colonies were cultured overnight in 2 mL LB.
The plasmid was extracted using a microcentrifuge membrane column kit (Miniprep®, Qiagen), and the sequence of genes and vector junctions were confirmed by Sanger sequencing (Table 6). The plasmid constructs were transformed by heat-shock into chemically-competent expression strain Rosetta 2 (DE3) pLysS E. coli cells (EMD Millipore), and selected on carbenicillin/chloramphenicol LB agar. Cells transformed with IDE pTrcHis A constructs were cultured overnight at 37° C. in 2 XYT media (31 g in 1 L) containing 100 μg/mL ampicillin and 34 μg/mL chloramphenicol. Expression of His6-tagged IDE proteins was induced when the culture measured OD600 ˜0.6 by addition of isopropyl-β-D-1-thiogalactopyranoside (IPTG) to 1 mM final concentration, incubated overnight at 37° C., followed by centrifugation at 10,000 g for 30 min at 4° C.
Recombinant His6-tagged proteins were purified by Ni(II)-affinity chromatography (IMAC sepharose beads, GE Healthcare®) according to the manufacturer's instructions. The cell pellets were resuspended in pH 8.0 buffer containing 50 mM phosphate, 300 mM NaCl, 10 mM imidazole, 1% Triton X-100 and 1 mM tris(2-carboxyethyl)phosphine hydrochloride (TCEP), and were lysed by probe sonication for 4 min at 4° C., followed by clearing of cell debris by centrifugation at 10,000 g for 25 min at 4° C. The supernatant was incubated with Ni(II)-doped IMAC resin (2 mL) for 3 h at 4° C. The resin was washed twice with the cell resuspension/lysis buffer, and three times with pH 8.0 buffer containing 50 mM phosphate, 300 mM NaCl,50 mM imidazole and 1 mM TCEP. Elution was performed in 2 mL aliquots by raising the imidazole concentration to 250 mM and subsequently to 500 mM in the previous buffer. The fractions were combined and the buffer was exchanged to the recommended IDE buffer (R&D) using spin columns with 100 KDa molecular weight cut off membranes (Millipore). Protein yields were typically ˜10 μg/L, and >90% purity based on gel electrophoresis analysis (Coomassie stained).

Row | SMILES | adverse observations after high-dose insulin (C57BL/6J mice; 80 mg/kg i.p. plus insulin 1.0 U/kg, sacrificed at 75 min) | plasma level of the hormone injected at the end of the procedure (C57BL/6J mice; insulin, amylin or glucagon challenge, lean mice, vs control) | blood glucose response to amylin challenge (C57BL/6J mice; lean mice, 80 mg/kg, amylin s.c. 250 μg/kg, vs vehicle) | blood glucose response to glucagon challenge (C57BL/6J mice; lean mice, 80 mg/kg, glucagon s.c. 100 μg/kg, vs vehicle) | blood glucose response in insulin tolerance test (C57BL/6J mice; mice, 6bK 80 mg/kg i.p. 30 min before s.c. insulin, vs vehicle) | insulin levels in insulin tolerance test (C57BL/6J mice; mice, 6bK 80 mg/kg, vs vehicle controls, p<0.01) | hypoglycemic response to a high dose of insulin (C57BL/6J mice; non-fasted male C57BL/6J mice, 80 mg/kg i.p., i.p. insulin 1.0 U/kg) | IC50 shift (hIDE WT; batch 1 (reference)) [fold] | IC50 shift (hIDE WT; batch 2 (reference)) [fold] | IC50 shift (hIDE WT; batch 3 (reference)) [fold]
1 | NCCCC[C@@H]1NC(=O)/C=C/C(=O)N[C@H](C(N)=O)CCCCNC(=O)[C@@H](Cc2ccc(C(=O)c3ccccc3)cc2)NC(=O)[C@H](CC2CCCCC2)NC1=O [Compound 6bK] | lethargy and hypothermia | remained elevated | hyperglycemia | hyperglycemia | lower hypoglycemia | higher | Increased hypoglycemic response | – | – | –
2 | NC(=O)CCC1NC(=O)C=CC(=O)NC(C(N)=O)CCCCNC(=O)C(Cc2ccc(C(=O)c3ccccc3)cc2)NC(=O)C(CC2CCCCC2)NC1=O (stereo not shown) [Compound 6b] | – | – | – | – | – | – | – | 1.0 | 1.0 | 1.0
